Results from patent US20250017891A1, “PHARMACEUTICAL COMPOSITION COMPRISING CABAZITAXEL PRODRUG-CYCLODEXTRIN INCLUSION COMPLEX, AND APPLICATIONS THEREOF” (TWI PHARMACEUTICALS, INC., priority 2023, published 2025).
Values joined by “and” are separate entries in the source; they are usually repeats but may differ in a detail not shown here. Equal values may be shown once. Read-outs that look alike come from different tables or passages of the source.

Legend:
[1] = Saturation test of CBT succinate-SBECD (1:2.2), solubility; assay type: physicochemical; settings: aqueous buffer, thermodynamic from solid, excess complex dissolved by 20 mM pH 8.0 phosphate buffer, read-out: CBT succinate water solubility
Text: For the CBT succinate-SBECD (1:2.2), a saturation test was further carried out.

[2] = In vivo bioconversion of CBT succinate in 50% PEG300 formulation, IV, mouse plasma by LC-MS/MS; parameters: species or system ICR male mice; settings: 15 mg/kg IV
Method: The bioanalysis results are tabulated as Tables 1 to 3 below. The values of mean and standard deviation (SD) are calculated. BLOQ means “below the limit of quantification”, and N/A means “not available”. Normal saline used herein is 0.90% sodium chloride aqueous solution.
C0: Initial concentration; • 3. […] AUC/D: AUC divided by dose; • 6.

[3] = Hydrolysis of CBT succinate dissolved in the aqueous preclinical formulation; assay type: physicochemical; settings: 50% PEG300 in normal saline
[4] = even in the mixed solvent of water and organic reagent; cited from earlier work
[5] = analyte Cabazitaxel in mouse plasma, CBT succinate in 50% PEG300 formulation, time 24 h
[6] = male, ICR, mouse plasma, CBT succinate in 50% PEG300 formulation
[7] = mouse plasma, CBT succinate in 50% PEG300 formulation
[8] = mouse plasma, CBT succinate in 50% PEG300 formulation, time 4 h
[9] = mouse plasma, CBT succinate in 50% PEG300 formulation, time 8 h
[10] = mouse plasma, CBT succinate in 50% PEG300 formulation, time 24 h

## CO[C@H]1C(=O)[C@]2(C)[C@@H](OC)C[C@H]3OC[C@@]3(OC(C)=O)[C@H]2[C@H](OC(=O)c2ccccc2)[C@]2(O)C[C@H](OC(=O)[C@H](OC(=O)CCC(=O)O)[C@@H](NC(=O)OC(C)(C)C)c3ccccc3)C(C)=C1C2(C)C [CBT succinate, cabazitaxel succinate]
[1]
  solubility: 120 µg/mL
[2]; analyte Cabazitaxel in mouse plasma, CBT succinate in 50% PEG300 formulation, time 8 h, 15 mg/kg
  CBT concentration (individual mouse): BLOQ
[2]; [5]
  CBT concentration (individual mouse): BLOQ
  CBT concentration, Mean: BLOQ
[2]; male, ICR, mouse, plasma, iv, 15 mg/kg, mouse plasma, CBT succinate in 50% PEG300 formulation, time 0.083 h, read-out: CBT succinate concentration (individual mouse)
  concentration at 0.083 h: 5980 ng/mL
[2]; male, ICR, mouse, plasma, iv, 15 mg/kg, mouse plasma, CBT succinate in 50% PEG300 formulation, time 0.083 h, read-out: CBT succinate concentration, Mean
  concentration at 0.083 h: 5750 ng/mL
[2]; male, ICR, mouse, plasma, iv, 15 mg/kg, mouse plasma, CBT succinate in 50% PEG300 formulation, time 0.167 h, read-out: CBT succinate concentration (individual mouse)
  concentration at 0.167 h: 3100 ng/mL
[2]; male, ICR, mouse, plasma, iv, 15 mg/kg, mouse plasma, CBT succinate in 50% PEG300 formulation, time 0.167 h, read-out: CBT succinate concentration, Mean
  concentration at 0.167 h: 3030 ng/mL
[2]; male, ICR, mouse, plasma, iv, 15 mg/kg, mouse plasma, CBT succinate in 50% PEG300 formulation, time 0.5 h
  concentration at 0.5 h: 386 ng/mL
[2]; male, ICR, mouse, plasma, iv, 15 mg/kg, mouse plasma, CBT succinate in 50% PEG300 formulation, time 1 h
  concentration at 1 h: 50 ng/mL
[2]; male, ICR, mouse, plasma, iv, 15 mg/kg, mouse plasma, CBT succinate in 50% PEG300 formulation, time 2 h, read-out: CBT succinate concentration (individual mouse)
  concentration at 2 h: 15 ng/mL
[2]; male, ICR, mouse, plasma, iv, 15 mg/kg, mouse plasma, CBT succinate in 50% PEG300 formulation, time 2 h, read-out: CBT succinate concentration, Mean
  concentration at 2 h: 15 ng/mL
[2]; [6]
  C0: 10800 ng/mL
  MRT: 9.6 min
[2]; male, ICR, mouse plasma, CBT succinate in 50% PEG300 formulation, read-out: AUCInf of CBT Succinate
  AUC(0-inf): 1770 ng·h/mL
[2]; male, ICR, mouse plasma, CBT succinate in 50% PEG300 formulation, read-out: AUClast of CBT Succinate
  AUC(0-t): 1770 ng·h/mL
[2]; male, ICR, mouse plasma, CBT succinate in 50% PEG300 formulation, read-out: CL of CBT Succinate
  clearance: 141 mL/min/kg
[2]; male, ICR, mouse plasma, CBT succinate in 50% PEG300 formulation, read-out: Vss of CBT Succinate
  Vd: 1.38 L/kg
[2]; male, ICR, mouse plasma, CBT succinate in 50% PEG300 formulation, read-out: t1/2 of CBT Succinate (converted)
  half-life: 13.8 min
[2]; mice, 50% PEG300 formulation
  bioconversion of CBT succinate to CBT: very rapidly
[2]; [7]
  AUC Extr of CBT Succinate: 0.28%
  AUC/D of CBT Succinate: 118 kg·ng·h/mL/mg
[2]; mouse plasma, CBT succinate in 50% PEG300 formulation, time 0.083 h, 15 mg/kg
  CBT succinate concentration (individual mouse): 5803 ng/mL and 5480 ng/mL
[2]; mouse plasma, CBT succinate in 50% PEG300 formulation, time 0.167 h, 15 mg/kg
  CBT succinate concentration (individual mouse): 3144 ng/mL and 2857 ng/mL
[2]; mouse plasma, CBT succinate in 50% PEG300 formulation, time 0.5 h, 15 mg/kg
  CBT succinate concentration (individual mouse): 541 ng/mL and 397 ng/mL and 221 ng/mL
[2]; mouse plasma, CBT succinate in 50% PEG300 formulation, time 1 h, 15 mg/kg
  CBT succinate concentration (individual mouse): 25 ng/mL and 51 ng/mL and 73 ng/mL
[2]; mouse plasma, CBT succinate in 50% PEG300 formulation, time 2 h, 15 mg/kg
  CBT succinate concentration (individual mouse): BLOQ
[2]; [8]
  CBT succinate concentration (individual mouse): BLOQ
  CBT succinate concentration, Mean: BLOQ
[2]; [9]
  CBT succinate concentration (individual mouse): BLOQ
  CBT succinate concentration, Mean: BLOQ
[2]; [10]
  CBT succinate concentration (individual mouse): BLOQ
  CBT succinate concentration, Mean: BLOQ
[3]
  hydrolysis when dissolved in the aqueous preclinical formulation: prone to hydrolysis

## CO[C@H]1C(=O)[C@]2(C)[C@@H](OC)C[C@H]3OC[C@@]3(OC(C)=O)[C@H]2[C@H](OC(=O)c2ccccc2)[C@]2(O)C[C@H](OC(=O)[C@H](O)[C@@H](NC(=O)OC(C)(C)C)c3ccccc3)C(C)=C1C2(C)C [cabazitaxel]
[4]
  solubility: almost insoluble
